Experimental findings from patent US10219516B2, “Molecules having pesticidal utility, and intermediates, compositions, and processes, related thereto” (priority 2015, dated 2019) are described below.

Like-named read-outs stand apart in the source and are kept apart here.

Holding throughout (type): in vivo
The test system of test [1] is Beet Armyworm (Spodoptera exigua, LAPHEG). Description: Bioassay on Beet Armyworm (BAW), 128-well diet tray assay. The gist of the method:
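In a 128-well format, eight wells per compound received a surface dose of 50 μg/cm^2 on artificial diet. After drying, each well got one to five second instar larvae, held at 25° C. with 14:10 photoperiod. Mortality percentages after five to seven days were averaged.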

The subject of test [2] is Cabbage Looper (Trichoplusia ni, TRIPNI). Kind of test: Bioassay on Cabbage Looper (CL), 128-well diet tray assay. The note with it: Trichoplusia ni. The gist of the method: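 Using eight wells per molecule, artificial diet was dosed at 50 μg/cm^2 with compound in 90:10 acetone-water and dried before one to five second-instar larvae were added per well. Covered vented trays were kept at 25° C. with 14:10 light-dark for five to seven days, then per-well percent mortality was recorded and averaged.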

Test [3] deals with Yellow Fever Mosquito (Aedes aegypti, AEDSAE). Kind of test: Bioassay on Yellow Fever Mosquito (YFM), 96-well plate larval assay. Particulars: for YFM (Biological Results, rating): Species YFM (Yellow Fever Mosquito); for YFM rating: Yellow Fever Mosquito, 96-well plate larval assay. The essentials: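 Each well was scored for mortality after 3 days at room temperature under a non-evaporative lid. Test molecules came from DMSO masters (4000 ppm stock) diluted with water/acetone 90:10 and dispensed into six replicate plates, which were then infested with roughly 1-day-old larvae in liver-powder water.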

The mark [4] stands for this setting: Species BAW (Beet Armyworm), read-out: BAW (Biological Results, rating).
Setting [5] is: Species CL (Cabbage Looper), read-out: CL (Biological Results, rating).
Setting [6] is: Beet Armyworm, 128-well diet tray assay, read-out: BAW rating.
The mark [7] stands for this setting: Cabbage Looper, 128-well diet tray assay, read-out: CL rating.

As to `O=C(Nc1ccccc1)c1cc(NC(=O)[C@H]2[C@H](c3cc(Cl)cc(Cl)c3)C2(Cl)Cl)cc(Cl)c1Cl` (relative stereo) [F246, trans-2,3-Dichloro-5-(2,2-dichloro-3-(3,5-dichlorophenyl)cyclopropane-1-carboxamido)-N-phenylbenzamide], the pest or weed control at 50 µg/cm2 in test [1] (setting [4]) and in test [2] (setting [5]) was 50 to 100% throughout. Also, the “YFM (Biological Results, rating)” value in test [3] is “A (80-100)”.

`O=C(Nc1ccc(-n2ccnc2)cc1)c1cc(NC(=O)[C@H]2[C@H](c3cc(Cl)cc(Cl)c3)C2(Cl)Cl)ccc1Cl` (relative stereo) [PF56, trans-N-(4-(1H-Imidazol-1-yl)phenyl)-2-chloro-5-(2,2-dichloro-3-(3,5-dichlorophenyl)cyclopropane-1-carboxamido)benzamide]: the pest or weed control at 50 µg/cm2 in test [1] (setting [6]) and in test [2] (setting [7]) was 50 to 100% each time. Further, the YFM rating result in test [3] was “A (80-100)”.

With `O=C(Nc1ccc(F)cc1F)c1cc(NC(=O)C2C(c3cc(Cl)cc(Cl)c3)[C@H]2Cl)ccc1Cl` (stereo partly drawn) [F215, 2-Chloro-5-((2R)-2-chloro-3-(3,5-dichlorophenyl)cyclopropane-1-carboxamido)-N-(2,4-difluorophenyl)benzamide], the pest or weed control at 50 µg/cm2 in test [1] (setting [4]) and in test [2] (setting [5]) was 50 to 100% in each case. Further, in test [3], the “YFM (Biological Results, rating)” value is on record as “B (More than 0-Less than 80)”.

For `Nc1c(F)ccc(NC(=O)c2cc(NC(=O)[C@H]3[C@H](c4cc(Cl)c(Cl)c(Cl)c4)C3(Cl)Cl)ccc2Cl)c1F` [F315, N-(3-Amino-2,4-difluorophenyl)-2-chloro-5-((1R,3R)-2,2-dichloro-3-(3,4,5-trichlorophenyl)cyclopropane-1-carboxamido)benzamide], the pest or weed control at 50 µg/cm2 in test [1] (setting [4]) and in test [2] (setting [5]) was 50 to 100% each time. The “YFM (Biological Results, rating)” value in test [3] is reported as “A (80-100)”.

For the compound `CNc1ccc(NC(=O)c2cc(NC(=O)[C@H]3[C@H](c4ccc(F)c(Cl)c4)C3(Cl)Cl)ccc2Cl)cc1` (relative stereo) [F261, trans-2-Chloro-5-(2,2-dichloro-3-(3-chloro-4-fluorophenyl)cyclopropane-1-carboxamido)-N-(4-(methylamino)phenyl)benzamide], the pest or weed control at 50 µg/cm2 in test [1] (setting [4]) and in test [2] (setting [5]) was 50 to 100% each time. Further, the “YFM (Biological Results, rating)” value in test [3] is recorded as “A (80-100)”.

For the compound `CNc1ccc(N(C)C(=O)c2cc(NC(=O)[C@H]3[C@H](c4cc(Cl)c(Cl)c(Cl)c4)C3(Cl)Cl)ccc2Cl)c(C)c1` (relative stereo) [F226, trans-2-Chloro-5-(2,2-dichloro-3-(3,4,5-trichlorophenyl)cyclopropane-1-carboxamido)-N-methyl-N-(2-methyl-4-(methylamino)phenyl)benzamide], the pest or weed control at 50 µg/cm2 in test [1] (setting [4]) and in test [2] (setting [5]) was 50 to 100% throughout. For the same compound, in test [3], the “YFM (Biological Results, rating)” value is reported as “A (80-100)”.

Turning to `O=C(Nc1ccc(F)cc1F)c1cc(NC(=O)[C@H]2[C@H](c3ccc(Cl)c(C(F)(F)F)c3)C2(Cl)Cl)ccc1Cl` (relative stereo) [F374, 2-Chloro-5-(trans)-(2,2-dichloro-3-(4-chloro-3-(trifluoromethyl)phenyl)cyclopropane-1-carboxamido)-N-(2,4-difluorophenyl)benzamide], the pest or weed control at 50 µg/cm2 in test [1] (setting [6]) and in test [2] (setting [7]) was 50 to 100% in each case. For the same compound, the YFM rating result in test [3] is given as “A (80-100)”.

In the case of `O=C(Nc1ccc(F)cc1F)c1cc(NC(=O)[C@H]2[C@H](c3ccc(Br)c(F)c3)C2(Cl)Cl)ccc1Cl` (relative stereo) [F364, 5-(trans)-(3-(4-Bromo-3-fluorophenyl)-2,2-dichlorocyclopropane-1-carboxamido)-2-chloro-N-(2,4-difluorophenyl)benzamide], the pest or weed control at 50 µg/cm2 in test [1] (setting [4]) and in test [2] (setting [5]) was 50 to 100% in each case. Besides, the “YFM (Biological Results, rating)” value in test [3] was “A (80-100)”.

For `O=C(Nc1ccc(F)cc1F)c1cc(NC(=O)[C@H]2[C@H](c3cc(Br)cc(C(F)(F)F)c3)C2(Cl)Cl)ccc1Cl` (relative stereo) [F424, 5-(trans)-(3-(3-Bromo-5-(trifluoromethyl)phenyl)-2,2-dichlorocyclopropane-1-carboxamido)-2-chloro-N-(2,4-difluorophenyl)benzamide], the pest or weed control at 50 µg/cm2 in test [1] (setting [6]) and in test [2] (setting [7]) was 50 to 100% each time. Also, in test [3], the YFM rating result is “A (80-100)”.

For `CNc1ccc(NC(=O)c2cc(NC(=O)[C@H]3[C@H](c4cc(Cl)c(Cl)c(Cl)c4)C3(Cl)Cl)ccc2Cl)c(C)c1` (relative stereo) [F223, trans-2-Chloro-5-(2,2-dichloro-3-(3,4,5-trichlorophenyl)cyclopropane-1-carboxamido)-N-(2-methyl-4-(methylamino)phenyl)benzamide], the pest or weed control at 50 µg/cm2 in test [1] (setting [4]) and in test [2] (setting [5]) was 50 to 100% in each case. In test [3], the “YFM (Biological Results, rating)” value is “A (80-100)”.

On to `N#Cc1c(F)cccc1NC(=O)c1cc(NC(=O)[C@H]2[C@H](c3cc(Cl)cc(Cl)c3)C2(Cl)Cl)ccc1Cl` (relative stereo) [F298, 2-Chloro-N-(2-cyano-3-fluorophenyl)-5-(trans-2,2-dichloro-3-(3,5-dichlorophenyl)cyclopropane-1-carboxamido)benzamide], for which the pest or weed control at 50 µg/cm2 in test [1] (setting [4]) and in test [2] (setting [5]) was 50 to 100% throughout. The “YFM (Biological Results, rating)” value in test [3] was “A (80-100)”.

For the compound `C=CC(=O)Nc1ccc(NC(=O)c2cc(NC(=O)[C@H]3[C@H](c4cc(Cl)cc(Cl)c4)C3(Cl)Cl)ccc2Cl)cc1` (relative stereo) [PF26, trans-N-(4-Acrylamidophenyl)-2-chloro-5-(2,2-dichloro-3-(3,5-dichlorophenyl)cyclopropane-1-carboxamido)benzamide], the pest or weed control at 50 µg/cm2 in test [1] (setting [6]) and in test [2] (setting [7]) was 50 to 100% each time. In addition, the YFM rating entry in test [3] is on record as “A (80-100)”.

With `C=Cc1ccc([C@H]2[C@H](C(=O)Nc3ccc(Cl)c(C(=O)Nc4ccc(F)cc4F)c3)C2(Cl)Cl)cc1F` (relative stereo) [F389, 2-Chloro-5-(trans-2,2-dichloro-3-(3-fluoro-4-vinylphenyl)cyclopropane-1-carboxamido)-N-(2,4-difluorophenyl)benzamide], the pest or weed control at 50 µg/cm2 in test [1] (setting [6]) and in test [2] (setting [7]) was 50 to 100% each time. Also, the YFM rating result in test [3] is given as “A (80-100)”.

For `O=C(Nc1ccc(F)cc1F)c1cc(NC(=O)C2C(c3ccc(Cl)c(F)c3)C2(Cl)Cl)ccc1Cl` (stereo not drawn) [PF36, 2-Chloro-5-(trans)-2,2-dichloro-3-(4-chloro-3-fluorophenyl)cyclopropane-1-carboxamido)-N-(2,4-difluorophenyl)benzamide], the pest or weed control at 50 µg/cm2 in test [1] (setting [6]) and in test [2] (setting [7]) was 50 to 100% each time. In addition, in test [3], the YFM rating entry is listed as “A (80-100)”.

For `Nc1cc(F)cc(NC(=O)c2cc(NC(=O)[C@H]3[C@H](c4ccc(Cl)c(Cl)c4)C3(Cl)Cl)ccc2Cl)c1` [F431, N-(3-Amino-5-fluorophenyl)-2-chloro-5-((1R,3R)-2,2-dichloro-3-(3,4-dichlorophenyl)cyclopropane-1-carboxamido)benzamide], the pest or weed control at 50 µg/cm2 in test [1] (setting [6]) and in test [2] (setting [7]) was 50 to 100% in each case. Moreover, the YFM rating entry in test [3] is reported as “A (80-100)”.
